According to US20090062255A1, “TUMOR-TARGETING EVALUATION METHODOLOGY AND COMPOUNDS RELATED THERETO” (THALLION PHARMACEUTICALS INC., priority 2007, published 2009):

Legend:
SRBC = assay: Hemolysis of SRBC; format: cell-based; conditions: concentration necessary to achieve 50% hemolysis of SRBC
[1] = system: PC-3 (prostate adenocarcinoma); assay: In vitro cytotoxic activity (GI50, propidium iodide), PC-3; format: cell-based, human; conditions: method (2)
Procedure: (§1) Procedures used for each series of tests are described below.
(§2) Compounds were dissolved at 10 mM in DMSO. […] The following day, propidium iodide was added to one of the two plates and fluorescence measured (Tz). […] Each compound was tested at each concentration and in triplicates. The equivalent cell number was determined after adding propidium iodide by measuring the signal by fluorescence (C for control).

[2] = system: MDA-MB-231 (mammary gland adenocarcinoma); assay: In vitro cytotoxic activity (GI50, propidium iodide), MDA-MB-231; format: cell-based, human; conditions: method (2), 96 hrs
Procedure: as §1, §2

SF268 (CNS) = assay: In vitro cytotoxic activity (GI50, propidium iodide), SF-268; format: cell-based; conditions: method (2), 96 hrs
Procedure: as §1, §2

[3] = system: HT-29 (colorectal carcinoma); assay: In vitro cytotoxic activity (GI50, propidium iodide), HT-29; format: cell-based; conditions: method (2), 96 hrs
Procedure: as §1, §2

[4] = molecular target: T1, peripheral benzodiazepine receptor (PBR) (Rattus norvegicus, UniProt P16257); assay: In-house PBR binding assay ([3H]PK11195, rat heart mitochondrial membranes); conditions: in-house radioligand-binding assay
T1 construct: CBR and PBR were obtained from rat brain and heart membrane-fractions, respectively; from tissue; host or cells: Wistar rat heart membranes

[5] = system: prenylation of Ras, RAP1A and HDJ2 (FTase, GGTase I); assay: Protein prenylation immunoblot (FTase and GGTase I activities) in MCF-7 cells; format: cell-based, human; conditions: MCF7 cells, 3, 10 and 30 μM, 24 h
Procedure: It was first verified if ECO-4601 interferes with Ras processing by monitoring FTase and GGTase I activities by immunoblot analysis. For these experiments, exponentially growing MCF-7 (human breast tumor) cells were seeded in 60 mm cell culture dishes at a density of 2.5×10^6 cells per dish. After an 18 h incubation period, ECO-4601 or lovastatin (Sigma-Aldrich, St. Louis, Mo.) were added at a final concentration of 3, 10 and 30 μM for 24 h. Cells were also treated with the vehicle alone (0.05% DMSO) for the same incubation periods. Treated and control cells were lysed in ice-cold RIPA buffer (50 mM Tris-HCl pH 7.4, 1% Triton X-100, 1% deoxycholate, 0.1% SDS, 150 mM NaCl, and 1 mM EDTA) containing protease inhibitors (Roche, Mannheim, Germany) and phosphatase inhibitors (EMD Biosciences, Calbiochem, San Diego, Calif.) for 20 minutes on ice. After lysis, cell debris was removed by centrifugation at 12000×g for 10 min. […] Bound antibodies were detected using horseradish peroxidase-conjugated secondary antibodies (Jackson ImmunoResearch Laboratories Inc., West Grove, Pa.) for 1 h at room temperature in 0.5% skim milk-TBS, visualized by treating the membranes with enhanced chemiluminescence reagents (Millipore, Mississauga, ON, Canada) and exposing them to BioMax Light Films (Kodak, Mississauga, ON, Canada). […]

Compound	Hemolysis (ED50 μg/mL) (SRBC) [µg/mL]	further results
CCN1c2c(O)cccc2C(=O)N(C/C=C(\C)CC/C=C(\C)CCC=C(C)C)c2cc(O)cc(O)c21 [Compound 14, 10-farnesyl-4,6,8-trihydroxy-5-ethyl-5,10-dihydro-dibenzo[b,e][1,4]diazepin-11-one]	43.9	–
CC(C)=CCCC1(C)OC1CC/C(C)=C/CN1C(=O)c2cccc(O)c2Nc2c(O)cc(O)cc21 (stereo not shown) [Compound 17, 10-(3,7,11-trimethyl-6,7-epoxydodeca-2,10-dienyl)-4,6,8-trihydroxy-5,10-dihydro-dibenzo[b,e][1,4]diazepin-11-one]	35.0	–
C/C(=C\CN1C(=O)c2cccc(O)c2Nc2c(O)cc(O)cc21)CC/C=C(\C)CCC1OC1(C)C (stereo not shown) [Compound 18]	>64	GI50 ([1]; Homo sapiens, 96 h): > 30 µM
CCCN1c2c(O)cccc2C(=O)N(C/C=C(\C)CC/C=C(\C)CCC=C(C)C)c2cc(O)cc(O)c21 [Compound 63, 10-farnesyl-4,6,8-trihydroxy-5-n-propyl-5,10-dihydro-dibenzo[b,e][1,4]diazepin-11-one]	>64	–
CCCCN1c2c(O)cccc2C(=O)N(C/C=C(\C)CC/C=C(\C)CCC=C(C)C)c2cc(O)cc(O)c21 [Compound 64, 10-farnesyl-4,6,8-trihydroxy-5-n-butyl-5,10-dihydro-dibenzo[b,e][1,4]diazepin-11-one]	>64	–
CCCCCCN1c2c(O)cccc2C(=O)N(C/C=C(\C)CC/C=C(\C)CCC=C(C)C)c2cc(O)cc(O)c21 [Compound 67, 10-farnesyl-4,6,8-trihydroxy-5-n-hexyl-5,10-dihydro-dibenzo[b,e][1,4]diazepin-11-one]	>64	–
CCC(C)N1c2c(O)cccc2C(=O)N(C/C=C(\C)CC/C=C(\C)CCC=C(C)C)c2cc(O)cc(O)c21 (stereo not shown) [Compound 77, 10-Farnesyl-4,6,8-trihydroxy-5-sec-butyl-5,10-dihydro-dibenzo[b,e][1,4]diazepin-11-one]	60.9	–
CC(C)CCCC(C)CCCC(C)CCN1C(=O)c2cccc(O)c2N(C)c2c(O)cc(O)cc21 (stereo not shown) [Compound 78, 10-(3,7,11-trimethyldodecyl)-4,6,8-trihydroxy-5-methyl-5,10-dihydro-dibenzo[b,e][1,4]diazepin-11-one]	9.89	–
COC(C)(CCC=C(C)C)CCC/C(C)=C/CN1C(=O)c2cccc(O)c2N(C)c2c(O)cc(O)cc21 (stereo not shown) [Compound 80, 10-(7-methoxy-3,7,11-trimethyldodeca-2,10-dienyl)-4,6,8-trihydroxy-5-methyl-5,10-dihydro-dibenzo[b,e][1,4]diazepin-11-one]	>64	–
COC(C)(C)CCCC(C)=CCCC(C)=CCN1C(=O)c2cccc(O)c2Nc2c(O)cc(O)cc21 [Compound 82, 10-(11-methoxy-3,7,11-trimethyl-2,6-dodecadienyl)-4,6,8-trihydroxy-5,10-dihydro-dibenzo[b,e][1,4]diazepin-11-one]	>64	–
COC(C)(CCC=C(C)C)CCC/C(C)=C/CN1C(=O)c2cccc(O)c2Nc2c(O)cc(O)cc21 (stereo not shown) [Compound 83]	12.4	GI50 [2]: 6.71 µM; GI50 (SF268 (CNS)): 9.74 µM; GI50 ([1]; 96 hrs): 13.2 µM; GI50 [3]: 19.6 µM
COC(C)(C)CCCC(C)(CCCC(C)=CCN1C(=O)c2cccc(O)c2Nc2c(O)cc(O)cc21)OC (stereo not shown) [Compound 84, 10-(7,11-dimethoxy-3,7,11-trimethyl-2-dodecenyl)-4,6,8-trihydroxy-5,10-dihydro-dibenzo[b,e][1,4]diazepin-11-one]	>32	–
CCN1c2c(O)cccc2C(=O)N(CC=C(C)CCC=C(C)CCCC(C)(C)OC)c2cc(O)cc(O)c21 [Compound 85, 10-(11-methoxy-3,7,11-trimethyl-2,6-dodecadienyl)-4,6,8-trihydroxy-5-ethyl-5,10-dihydro-dibenzo[b,e][1,4]diazepin-11-one]	>64	–
CCN1c2c(O)cccc2C(=O)N(CC=C(C)CCCC(C)(CCCC(C)(C)OC)OC)c2cc(O)cc(O)c21 (stereo not shown) [Compound 87, 10-(7,11-dimethoxy-3,7,11-trimethyl-2-dodecenyl)-4,6,8-trihydroxy-5-ethyl-5,10-dihydro-dibenzo[b,e][1,4]diazepin-11-one]	>64	–
CC(C)=CCCC(C)(O)CCCC(C)=CCN1C(=O)c2cccc(O)c2Nc2c(O)cc(O)cc21 (stereo not shown) [Compound 89, 10-(7-hydroxy-3,7,11-trimethyldodeca-2,10-dienyl)-4,6,8-trihydroxy-5,10-dihydro-dibenzo[b,e][1,4]diazepin-11-one]	>64	–
CC(=O)NC(C)(CCC=C(C)C)CCCC(C)=CCN1C(=O)c2cccc(O)c2Nc2c(O)cc(O)cc21 (stereo not shown) [Compound 92, 10-(7-acetamido-3,7,11-trimethyldodeca-2,10-dienyl)-4,6,8-trihydroxy-5,10-dihydro-dibenzo[b,e][1,4]diazepin-11-one]	>64	–
CC(C)=CCC/C(C)=C/CC/C(C)=C/CN1C(=O)c2cccc(O)c2Nc2c1cc(O)c(Br)c2O [Compound 97, 10-(farnesyl)-7-bromo-4,6,8-trihydroxy-5,10-dihydro-dibenzo[b,e][1,4]diazepin-11-one]	15.1	–
[2H]C([2H])([2H])N1c2c(O)cccc2C(=O)N(C/C=C(\C)CC/C=C(\C)CCC=C(C)C)c2cc(O)cc(O)c21 [Compound 98, 10-Farnesyl-4,6,8-trihydroxy-5-(trideuteriomethyl)-5,10-dihydro-dibenzo[b,e][1,4]diazepin-11-one]	4.5	–
CC(C)=CCC/C(C)=C/CC/C(C)=C/CN1C(=O)c2cccc(O)c2N(C)c2c1cc(O)c(Br)c2O [Compound 99]	–	IC50 [4]: 0.01 µM
CC[C@H](C)C(=O)O[C@H]1C[C@@H](C)C=C2C=C[C@H](C)[C@H](CC[C@@H]3C[C@@H](O)CC(=O)O3)[C@H]21 [lovostatin, lovastatin, reference compound]	–	effect on protein prenylation (mobility shift of Ras, RAP1A and HDJ2) [5]: expected mobility shift
